{
  "source": "patent US11642359B2",
  "about": "“Nutritional composition for improving intestinal barrier integrity, preparation of the composition and method of treatment” (priority 2018, dated 2023)",
  "system": "alpha-1 antitrypsin (A1AT) in the gut wash",
  "assay": "A1AT in the gut wash by ELISA as marker of intestinal permeability / barrier disruption in rotavirus-infected suckling rats",
  "assay_type": "in vivo, rat",
  "settings": "compared to both the RV and REF groups (p<0.05), 3rd day of the diarrheal period (peak of diarrhea)",
  "experimental": "Newborn rats were distributed into five groups of 24 animals each: the reference (REF) group, rotavirus-infected (RV) group, and 3 rotavirus-infected groups supplemented with: a) a mixture of scGOS and lcFOS (RV+GOS/FOS group); b) 2′-FL (RV+2′-FL group); and c) both scGOS/lcFOS and 2′-FL (RV+GOS/FOS+2′-FL group).\nSuckling rats were orally administered once daily with the same normalized volume/body weight of all products (4.5 μL/g/day), from the second to the sixteenth day of life, corresponding to the strict lactation period. The RV+GOS/FOS group was supplemented with 0.8 g of scGOS/lcFOS/100 g of body weight. The RV+2′-FL group was supplemented with 0.2 g of 2′-FL/100 g of body weight. The RV+GOS/FOS+2′-FL group received both products at the same doses as when given separately and maintaining the volume of administration (4.5 μL/g/day). The REF and RV groups were administered with a matched volume of water. […]\nThe quantification of A1AT in the gut wash, as a marker of intestinal permeability, was performed with the rat SERPINA1/Alpha 1 Antitrypsin ELISA kit (LifeSpan Biosciences Inc., Seattle, Wash., USA) following the manufacturer's instructions. […]",
  "data": [
    {"substance": "2′-fucosyllactose [2′-FL]", "values": [
      {"measurement": "concentration of A1AT in the gut wash", "result": "reduced"},
      {"measurement": "concentration of A1AT in the gut wash", "setting": "listed as 2′-fucosyllactose", "result": "significant reduction"}
    ]}
  ]
}
